Source: US5607937A, “Piperazides of substituted phenylalanine derivatives as thrombin inhibitors” (priority 1993, dated 1997)
Values joined by “and” are separate entries in the source; they are usually repeats but may differ in a detail not shown here. Equal entries are not always repeated. Structures can show the parent of a compound that is named as a salt. Where two headings read alike, the source gives them in different places. Each block holds one compound with its values, some of them ahead of it.

Tests used:
glandular kallikrein = glandular kallikrein (Sus scrofa, UniProt P00752); test: inhibition of glandular kallikrein, dissociation constant Ki
factor Xa = factor Xa (Bos taurus, UniProt P00743); test: inhibition of factor Xa, dissociation constant Ki; assay type: biochemical; settings: Table 1
Method: (§1) The biological activity of the compounds of the present invention was determined in vitro as well as in vivo.

[1] = test system: coagulation in human plasma; test: activated partial thromboplastin time (aPTT) in human plasma
tPA = tPA (Homo sapiens, UniProt P00750); test: inhibition of tPA, dissociation constant Ki
factor XIIa = target: T1, factor XIIa (Homo sapiens, UniProt P00748); test: inhibition of factor XIIa, dissociation constant Ki
T1 sequence (P00748 373-615 limits assumed): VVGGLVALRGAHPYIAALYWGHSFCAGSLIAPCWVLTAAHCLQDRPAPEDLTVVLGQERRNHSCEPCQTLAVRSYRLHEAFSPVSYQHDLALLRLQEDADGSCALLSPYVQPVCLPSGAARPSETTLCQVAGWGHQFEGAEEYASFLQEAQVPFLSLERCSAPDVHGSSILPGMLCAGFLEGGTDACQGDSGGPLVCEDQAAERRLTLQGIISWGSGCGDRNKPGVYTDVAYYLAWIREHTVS

thrombin [2] = target: T2, thrombin (Bos taurus, UniProt P00735); test: biochemical
plasma kallikrein = plasma kallikrein (Homo sapiens, UniProt P03952); test: inhibition of plasma kallikrein, dissociation constant Ki
[3] = test system: coagulation in human plasma; test: prothrombin time (PT, Quick value) in human plasma
[4] = test system: coagulation in human plasma; test: thrombin time (TT) in human plasma
[5] = plasma concentration in rats after oral administration; assay type: in vivo; settings: rat
[6] = plasma concentration in rats after intravenous administration; assay type: in vivo; settings: rat
Method: A physiological NaCl solution of the substance to be tested was submitted to high pressure liquid chromatography (HPLC) in order to determine its characteristic substance-specific retention time with the chosen test conditions.
The substance to be tested was diluted in vitro in rat plasma. This solution was also submitted to HPLC to see whether the characteristic peak of the substance once again appeared at the substance-specific retention time.
Blood samples were taken at time intervals of 15 minutes, from which plasma samples were prepared by centrifugation; those samples were also submitted to HPLC to see whether the characteristic peak of the substance appeared again at the substance-specific retention time.
After administration, blood samples were taken from the test animals at time intervals from 2 to maximally 360 minutes and the blood level of the compounds to be tested was determined by HPLC.

[7] = plasma concentration in rats after rectal administration; assay type: in vivo; settings: rat
plasmin = plasmin (Homo sapiens, UniProt P00747); test: inhibition of plasmin, dissociation constant Ki
trypsin = target: T3, trypsin (Bos taurus, UniProt P00760); test: inhibition of trypsin, dissociation constant Ki; assay type: biochemical; design: thrombin and the related enzymes trypsin, plasmin, factor Xa, factor XIIa; settings: Table 1; read-out: Ki, Trypsin
T3 sequence (P00760 24-246): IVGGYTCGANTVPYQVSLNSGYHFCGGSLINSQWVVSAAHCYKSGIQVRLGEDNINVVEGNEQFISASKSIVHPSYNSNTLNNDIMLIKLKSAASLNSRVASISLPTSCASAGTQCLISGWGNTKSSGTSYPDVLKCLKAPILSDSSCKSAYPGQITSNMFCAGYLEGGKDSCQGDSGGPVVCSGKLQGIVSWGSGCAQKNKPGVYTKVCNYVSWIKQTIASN
Method: as §1

thrombin [8] = target: T2, thrombin
[9] = read-out: Ki, Thrombin, Table 1

Chain of tPA (P00750 36-562): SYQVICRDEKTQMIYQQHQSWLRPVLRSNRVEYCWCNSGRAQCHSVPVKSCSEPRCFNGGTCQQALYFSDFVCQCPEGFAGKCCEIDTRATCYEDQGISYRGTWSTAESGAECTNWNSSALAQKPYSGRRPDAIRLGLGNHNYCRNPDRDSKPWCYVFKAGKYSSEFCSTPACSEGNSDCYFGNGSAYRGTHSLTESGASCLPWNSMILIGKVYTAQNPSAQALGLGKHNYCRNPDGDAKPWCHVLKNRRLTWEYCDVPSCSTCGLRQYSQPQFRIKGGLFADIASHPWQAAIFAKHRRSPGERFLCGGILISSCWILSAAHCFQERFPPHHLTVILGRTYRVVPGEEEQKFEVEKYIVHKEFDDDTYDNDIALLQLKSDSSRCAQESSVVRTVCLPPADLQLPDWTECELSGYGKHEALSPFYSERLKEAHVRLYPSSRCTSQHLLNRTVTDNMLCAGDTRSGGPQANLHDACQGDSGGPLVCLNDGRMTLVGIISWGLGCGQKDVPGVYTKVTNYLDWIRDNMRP
Chain of plasma kallikrein (P03952 391-638 limits assumed, species assumed): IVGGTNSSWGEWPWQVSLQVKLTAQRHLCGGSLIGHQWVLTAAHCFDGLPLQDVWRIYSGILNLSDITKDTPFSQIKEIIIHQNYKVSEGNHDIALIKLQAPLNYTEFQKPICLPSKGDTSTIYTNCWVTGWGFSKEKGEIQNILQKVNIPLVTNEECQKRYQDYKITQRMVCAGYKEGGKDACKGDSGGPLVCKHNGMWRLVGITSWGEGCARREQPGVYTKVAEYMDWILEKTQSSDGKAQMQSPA
Chain of plasma kallikrein (P03952 20-390 partner limits assumed, species assumed): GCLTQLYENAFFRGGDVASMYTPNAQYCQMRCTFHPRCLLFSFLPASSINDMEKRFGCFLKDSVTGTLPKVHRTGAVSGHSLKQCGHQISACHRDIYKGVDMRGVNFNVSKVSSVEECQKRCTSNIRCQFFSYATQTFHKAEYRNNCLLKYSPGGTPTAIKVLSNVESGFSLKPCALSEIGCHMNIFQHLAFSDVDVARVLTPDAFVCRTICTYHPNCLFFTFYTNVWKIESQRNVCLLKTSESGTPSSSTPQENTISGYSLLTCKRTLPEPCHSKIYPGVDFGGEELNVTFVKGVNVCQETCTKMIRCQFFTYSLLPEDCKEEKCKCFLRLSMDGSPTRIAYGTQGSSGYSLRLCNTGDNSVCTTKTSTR
Chain of plasmin (P00747 581-810 limits assumed): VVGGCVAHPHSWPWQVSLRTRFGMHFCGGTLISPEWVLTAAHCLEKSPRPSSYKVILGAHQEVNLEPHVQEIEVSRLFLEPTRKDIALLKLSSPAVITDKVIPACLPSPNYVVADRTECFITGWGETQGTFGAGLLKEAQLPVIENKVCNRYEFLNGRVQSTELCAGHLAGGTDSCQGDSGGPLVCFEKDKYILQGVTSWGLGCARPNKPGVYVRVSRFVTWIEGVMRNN
Chain of plasmin (P00747 97-580 partner limits assumed): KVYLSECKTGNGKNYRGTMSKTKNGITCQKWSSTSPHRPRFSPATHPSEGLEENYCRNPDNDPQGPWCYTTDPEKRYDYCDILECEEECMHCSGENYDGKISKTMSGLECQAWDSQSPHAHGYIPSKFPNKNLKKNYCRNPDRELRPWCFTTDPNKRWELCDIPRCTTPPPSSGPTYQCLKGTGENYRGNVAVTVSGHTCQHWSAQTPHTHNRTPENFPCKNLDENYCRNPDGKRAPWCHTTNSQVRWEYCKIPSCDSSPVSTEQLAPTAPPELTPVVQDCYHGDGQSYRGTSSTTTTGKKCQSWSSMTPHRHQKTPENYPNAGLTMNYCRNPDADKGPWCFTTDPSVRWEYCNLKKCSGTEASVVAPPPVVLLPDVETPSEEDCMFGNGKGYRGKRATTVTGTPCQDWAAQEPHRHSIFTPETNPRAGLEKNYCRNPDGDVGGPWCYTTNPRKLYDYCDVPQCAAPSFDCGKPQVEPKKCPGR
Chain of factor Xa (P00743 234-492 limits assumed): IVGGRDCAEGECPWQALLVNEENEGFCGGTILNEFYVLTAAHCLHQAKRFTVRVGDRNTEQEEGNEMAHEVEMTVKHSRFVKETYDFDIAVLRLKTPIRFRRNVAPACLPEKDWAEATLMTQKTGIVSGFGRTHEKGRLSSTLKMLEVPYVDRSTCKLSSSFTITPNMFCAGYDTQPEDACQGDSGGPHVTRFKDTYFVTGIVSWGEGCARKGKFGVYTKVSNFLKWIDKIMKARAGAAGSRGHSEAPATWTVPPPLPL
Chain of factor Xa (P00743 41-180 partner limits assumed): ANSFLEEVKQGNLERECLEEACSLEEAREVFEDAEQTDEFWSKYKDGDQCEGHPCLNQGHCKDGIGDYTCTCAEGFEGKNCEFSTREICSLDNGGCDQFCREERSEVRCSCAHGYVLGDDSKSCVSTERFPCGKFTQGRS
Chain of glandular kallikrein (P00752 8-246): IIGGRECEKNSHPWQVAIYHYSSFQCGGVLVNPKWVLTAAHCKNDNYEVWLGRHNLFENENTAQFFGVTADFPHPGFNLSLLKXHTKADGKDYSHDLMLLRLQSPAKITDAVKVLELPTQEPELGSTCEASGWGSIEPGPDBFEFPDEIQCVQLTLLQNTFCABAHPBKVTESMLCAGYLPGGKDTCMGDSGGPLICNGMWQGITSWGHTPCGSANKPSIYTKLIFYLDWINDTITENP

SMILES: Cc1c(C)c(S(=O)(=O)N[C@@H](Cc2cccc(C(=N)N)c2)C(=O)N2CCN(S(C)(=O)=O)CC2)c(C)c2c1OC(C)(C)CC2 [Compound 10, Pmc-3-amidino-(L)-phenylalanine-4-methylsulfonyl piperazide hydrochloride]
- Ki (glandular kallikrein): > 1 mM
- Ki (factor Xa): 37 µM
- Concentr. to double the aPTT [1]: 0.44 µmol/L
- Ki (tPA): 600 µM
- Ki (factor XIIa): > 1000 µM
- Ki (thrombin [2]): 5.3 nM
- Ki (plasma kallikrein): 110 µM
- Concentr. to double the Prothrombin time [3]: 0.8 µmol/L
- Concentr. to double the Thrombin time [4]: 0.10 µmol/L

SMILES: CC(=O)N1CCN(C(=O)C(Cc2cccc(C(=N)N)c2)NS(=O)(=O)c2ccc3ccccc3c2)CC1 (stereo not shown) [Compound 1]
- Ki (glandular kallikrein): > 1 mM
- Ki (factor Xa): 48 µM
- concentration at 0.5 h ([5]; plasma, oral 50 mg/kg, 30 min): 87 ng/mL
- concentration at 1 h ([5]; plasma, oral 50 mg/kg, 60 min): 63 ng/mL
- concentration at 2 h ([5]; plasma, oral 50 mg/kg, 120 min): 57 ng/mL
- concentration at 3 h ([5]; plasma, oral 50 mg/kg, 180 min): 69 ng/mL
- concentration at 4 h ([5]; plasma, oral 50 mg/kg, 240 min): 91 ng/mL
- concentration at 5 h ([5]; plasma, oral 50 mg/kg, 300 min): 61 ng/mL
- resorption in words ([5]; oral): only slightly resorbed
- Concentr. to double the aPTT [1]: 0.90 µmol/L
- concentration to double the aPTT [1]: ≤ 1 μmol/1
- concentration at 5 min ([6]; plasma, iv, i.v. 1 mg/kg, 5 min): 1060 ng/mL
- concentration at 0.25 h ([6]; plasma, iv, i.v. 1 mg/kg, 15 min): 394 ng/mL
- concentration at 0.5 h ([6]; plasma, iv, i.v. 1 mg/kg, 30 min): 150 ng/mL
- concentration at 1 h ([6]; plasma, iv, i.v. 1 mg/kg, 60 min): 89 ng/mL
- concentration at 2 h ([6]; plasma, iv, i.v. 1 mg/kg, 120 min): 74 ng/mL
- concentration at 3 h ([6]; plasma, iv, i.v. 1 mg/kg, 180 min): 51 ng/mL
- elimination in words ([6]; i.v.): eliminated at comparable rate
- Ki (tPA): > 1000 µM
- Ki (factor XIIa): 210 µM
- concentration at 0.5 h ([7]; plasma, rectal 100 mg/kg, 30 min): 31400 ng/mL
- concentration at 1 h ([7]; plasma, rectal 100 mg/kg, 60 min): 17900 ng/mL
- concentration at 2 h ([7]; plasma, rectal 100 mg/kg, 120 min): 3780 ng/mL
- concentration at 3 h ([7]; plasma, rectal 100 mg/kg, 180 min): 1080 ng/mL
- concentration at 4 h ([7]; plasma, rectal 100 mg/kg, 240 min): 438 ng/mL
- concentration at 5 h ([7]; plasma, rectal 100 mg/kg, 300 min): 220 ng/mL
- concentration at 6 h ([7]; plasma, rectal 100 mg/kg, 360 min): 158 ng/mL
- detectable in plasma after rectal administration ([7]; rectal): ≥ 6 h
- Ki (plasma kallikrein): 28 µM
- Concentr. to double the Prothrombin time [3]: 2.5 µmol/L
- concentration to double the PT [3]: ≤ 1 μmol/1
- Concentr. to double the Thrombin time [4]: 0.095 µmol/L
- concentration to double the TT [4]: less than 10^-7 mol/1
- Ki (plasmin; read-out: Ki, Plasmin, Table 1): 8.4 µM

- Ki (glandular kallikrein): > 1 mM
- Ki (factor Xa): 4.1 µM
- Ki (tPA): > 1000 µM
- Ki (factor XIIa): 52 µM
- Ki (thrombin [2]): 14 nM
- Ki (plasma kallikrein): 7 µM
- Ki (plasmin): 8.6 µM
- Ki (trypsin): 26 nM
SMILES: CC(=O)N1CCN(C(=O)C(Cc2cccc(C(=N)N)c2)NS(=O)(=O)c2ccc3c(c2)C(=O)c2ccccc2C3=O)CC1 (stereo not shown) [Compound 4]
- Concentr. to double the aPTT [1]: 1.2 µmol/L
- concentration to double the aPTT [1]: ≤ 1 μmol/1
- Concentr. to double the Prothrombin time [3]: 2.0 µmol/L
- concentration to double the PT [3]: ≤ 1 μmol/1
- Concentr. to double the Thrombin time [4]: 0.085 µmol/L
- concentration to double the TT [4]: less than 10^-7 mol/1

SMILES: CN(C)C(=O)N1CCN(C(=O)C(Cc2cccc(C(=N)N)c2)NS(=O)(=O)c2ccc3ccccc3c2)CC1 (stereo not shown) [AMD 2-Naph CO-N(Me)2]
- Ki (glandular kallikrein): > 1 mM
- Ki (factor Xa): 24 µM and 22 µM
- Ki (tPA): > 1000 µM
- Ki (factor XIIa; Ki, Factor XIIa, Table 1): 200 µM and 130 µM
- Ki (thrombin [2]): 13 nM
- Ki (plasma kallikrein; Ki, Plasma kallikr., Table 1): 47 µM and 28 µM
- Ki (thrombin [8]; [9]): 8.8 nM
- Ki (plasmin): 6.2 µM
- Ki (plasmin; read-out: Ki, Plasmin, Table 1): 6.1 µM
- Ki (trypsin): 49 nM

SMILES: COc1cc(C)c(S(=O)(=O)N[C@@H](Cc2cccc(C(=N)N)c2)C(=O)N2CCN(S(C)(=O)=O)CC2)c(C)c1C [Compound 9]
- Ki (glandular kallikrein): > 1 mM
- Ki (factor Xa): 48 µM
- Concentr. to double the aPTT [1]: 0.57 µmol/L
- Ki (tPA): 600 µM
- Ki (factor XIIa): > 1000 µM
- Ki (thrombin [2]): 20 nM
- Ki (plasma kallikrein): 170 µM
- Concentr. to double the Prothrombin time [3]: 1.1 µmol/L
- Concentr. to double the Thrombin time [4]: 0.12 µmol/L
- Ki (plasmin): 8.2 µM
- Ki (trypsin): 860 nM

- Ki (glandular kallikrein; read-out: Ki, Gland. kallikr., Table 1): > 1 mM
- Ki (factor Xa): 5.9 µM
- Ki (tPA; read-out: Ki, tPA, Table 1): 270 µM
- Ki (factor XIIa; read-out: Ki, Factor XIIa, Table 1): 72 µM
- Ki (plasma kallikrein; read-out: Ki, Plasma kallikr., Table 1): 37 µM
- Ki (thrombin [8]; [9]): 68 nM
- Ki (plasmin; read-out: Ki, Plasmin, Table 1): 4.8 µM
- Ki (trypsin): 250 nM
SMILES: CN(C)C(=O)N1CCN(C(=O)C(Cc2cccc(C(=N)N)c2)NS(=O)(=O)c2cccc3ccccc23)CC1 (stereo not shown) [AMD 1-Naph CO2 N(Me)2]

- Ki (glandular kallikrein): > 1 mM
- Ki (factor Xa): 9.7 µM
- Ki (tPA): > 1000 µM
- Ki (factor XIIa): > 1000 µM
- Ki (plasma kallikrein): 79 µM
- Ki (thrombin [8]; [9]): 26 nM
- Ki (thrombin [8]; read-out: Thrombin inhibition Ki, Table 7): 26 nM
- Ki (plasmin; read-out: Ki, Plasmin, Table 1): 5 µM
SMILES: CS(=O)(=O)N1CCN(C(=O)C(Cc2cccc(C(=N)N)c2)NS(=O)(=O)c2cccc3ccccc23)CC1 (stereo not shown) [Compound 11]
